Measurements from ChEMBL document CHEMBL2062409, “Conformationally-restricted cyclic sulfones as potent and selective mTOR kinase inhibitors” (Bioorg Med Chem Lett, 2012).

What was measured:
[1] = biological target: T1, Serine/threonine-protein kinase mTOR (Homo sapiens, UniProt P42345); assay: Inhibition of mTOR
[2] = biological target: T2, Phosphatidylinositol 4,5-bisphosphate 3-kinase catalytic subunit alpha isoform (Homo sapiens, UniProt P42336); assay: Inhibition of PI3Kalpha
[3] = Clearance in human liver microsomes assessed per mg of protein; assay type: ADME, Microsome; details: read-out: CLH
[4] = Clearance in human hepatocytes assessed per million cells; assay type: ADME, cell-based, Hepatocyte; details: read-out: CLH
[5] = biological target: T2, Phosphatidylinositol 4,5-bisphosphate 3-kinase catalytic subunit alpha isoform; assay: Inhibition of PI3Kalpha at 100 nM
[6] = biological target: T1, Serine/threonine-protein kinase mTOR; assay: Inhibition of mTOR-mediated AKT phosphorylation at Ser473 by cell based assay
[7] = organism: Homo sapiens; assay: Selectivity ratio of Ki for PI3Kalpha to Ki for mTOR
[8] = biological target: T1, Serine/threonine-protein kinase mTOR; assay: Inhibition of mTOR-mediated ribosomal protein S6 kinase phosphorylation by cell based assay
[9] = Clearance in rat; assay type: ADME, organism-based; details: in vivo
[10] = Half life in rat; assay type: ADME, organism-based; details: in vivo
[11] = Oral bioavailability in rat; assay type: ADME, organism-based; details: in vivo
[12] = Drug excretion in rat; assay type: ADME, organism-based; details: in vivo, read-out: Drug excretion
[13] = biological target: CYP3A4 (Homo sapiens, UniProt P08684); assay: Inhibition of CYP3A4 at 3 uM; assay type: ADME
[14] = biological target: T3, CYP1A2 (Homo sapiens, UniProt P05177); assay: Inhibition of CYP1A2 at 3 uM; assay type: ADME
T3 sequence (P05177 whole entry): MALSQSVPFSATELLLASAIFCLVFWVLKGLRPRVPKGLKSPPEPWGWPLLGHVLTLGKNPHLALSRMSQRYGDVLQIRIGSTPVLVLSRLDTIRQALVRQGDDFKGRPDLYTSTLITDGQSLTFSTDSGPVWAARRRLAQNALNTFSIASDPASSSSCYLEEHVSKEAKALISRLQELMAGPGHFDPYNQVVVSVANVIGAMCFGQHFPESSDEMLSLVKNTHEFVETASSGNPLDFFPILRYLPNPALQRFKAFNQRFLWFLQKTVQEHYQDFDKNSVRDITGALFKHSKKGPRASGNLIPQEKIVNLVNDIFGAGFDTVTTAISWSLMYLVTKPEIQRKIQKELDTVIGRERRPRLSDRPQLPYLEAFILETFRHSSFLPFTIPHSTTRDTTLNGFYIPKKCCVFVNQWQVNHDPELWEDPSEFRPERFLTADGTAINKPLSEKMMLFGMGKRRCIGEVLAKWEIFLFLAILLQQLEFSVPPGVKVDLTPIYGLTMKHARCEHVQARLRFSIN

[15] = biological target: CYP2C9 (Homo sapiens, UniProt P11712); assay: Inhibition of CYP2C9 at 3 uM; assay type: ADME
[16] = biological target: CYP2D6 (Homo sapiens, UniProt P10635); assay: Inhibition of CYP2D6 at 3 uM; assay type: ADME
[17] = system: Salmonella typhimurium; assay: Genotoxicity in Salmonella typhimurium; assay type: toxicity, organism-based; details: salmonella enterica subsp. enterica serovar typhimurium

T2 sequence (P42336 whole entry, canonical isoform): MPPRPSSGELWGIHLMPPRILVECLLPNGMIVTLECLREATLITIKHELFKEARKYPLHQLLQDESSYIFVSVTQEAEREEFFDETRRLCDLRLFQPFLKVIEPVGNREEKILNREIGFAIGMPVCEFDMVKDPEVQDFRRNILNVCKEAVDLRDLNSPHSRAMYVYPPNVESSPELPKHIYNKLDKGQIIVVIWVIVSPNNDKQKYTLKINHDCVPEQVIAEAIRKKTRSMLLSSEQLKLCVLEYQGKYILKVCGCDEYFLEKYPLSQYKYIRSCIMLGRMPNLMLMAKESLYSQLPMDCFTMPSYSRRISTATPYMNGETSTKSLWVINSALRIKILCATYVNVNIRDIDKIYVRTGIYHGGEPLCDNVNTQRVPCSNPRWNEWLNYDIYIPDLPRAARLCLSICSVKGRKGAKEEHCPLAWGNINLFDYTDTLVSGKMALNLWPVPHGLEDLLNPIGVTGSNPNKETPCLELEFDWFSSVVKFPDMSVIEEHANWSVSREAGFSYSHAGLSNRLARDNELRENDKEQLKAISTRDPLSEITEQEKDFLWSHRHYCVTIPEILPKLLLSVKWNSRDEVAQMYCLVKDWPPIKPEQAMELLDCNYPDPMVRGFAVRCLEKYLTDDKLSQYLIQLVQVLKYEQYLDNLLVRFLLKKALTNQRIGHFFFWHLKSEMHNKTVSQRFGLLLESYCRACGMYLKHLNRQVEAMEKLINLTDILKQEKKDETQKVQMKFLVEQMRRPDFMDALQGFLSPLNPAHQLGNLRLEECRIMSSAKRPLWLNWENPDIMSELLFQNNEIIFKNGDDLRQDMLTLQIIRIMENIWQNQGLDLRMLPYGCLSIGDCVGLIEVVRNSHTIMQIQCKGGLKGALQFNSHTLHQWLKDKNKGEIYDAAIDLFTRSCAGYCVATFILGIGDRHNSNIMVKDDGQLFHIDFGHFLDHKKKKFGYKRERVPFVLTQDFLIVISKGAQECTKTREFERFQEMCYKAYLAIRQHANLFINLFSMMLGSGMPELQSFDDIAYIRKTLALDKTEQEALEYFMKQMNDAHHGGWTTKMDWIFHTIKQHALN
Chain of CYP3A4 (P08684 whole entry): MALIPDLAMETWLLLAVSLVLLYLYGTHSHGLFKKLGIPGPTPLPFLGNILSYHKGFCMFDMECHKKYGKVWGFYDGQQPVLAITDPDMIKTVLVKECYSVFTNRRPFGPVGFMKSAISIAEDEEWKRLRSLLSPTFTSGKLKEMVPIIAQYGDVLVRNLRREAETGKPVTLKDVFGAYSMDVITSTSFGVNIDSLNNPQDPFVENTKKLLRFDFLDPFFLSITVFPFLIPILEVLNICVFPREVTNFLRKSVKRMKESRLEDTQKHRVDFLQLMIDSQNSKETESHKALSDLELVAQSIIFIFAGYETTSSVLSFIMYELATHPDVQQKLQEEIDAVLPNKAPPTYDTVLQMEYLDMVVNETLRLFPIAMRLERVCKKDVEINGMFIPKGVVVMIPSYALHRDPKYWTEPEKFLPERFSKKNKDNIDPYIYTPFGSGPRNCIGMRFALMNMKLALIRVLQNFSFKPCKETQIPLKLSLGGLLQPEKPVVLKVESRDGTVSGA
Chain of CYP2D6 (P10635 whole entry): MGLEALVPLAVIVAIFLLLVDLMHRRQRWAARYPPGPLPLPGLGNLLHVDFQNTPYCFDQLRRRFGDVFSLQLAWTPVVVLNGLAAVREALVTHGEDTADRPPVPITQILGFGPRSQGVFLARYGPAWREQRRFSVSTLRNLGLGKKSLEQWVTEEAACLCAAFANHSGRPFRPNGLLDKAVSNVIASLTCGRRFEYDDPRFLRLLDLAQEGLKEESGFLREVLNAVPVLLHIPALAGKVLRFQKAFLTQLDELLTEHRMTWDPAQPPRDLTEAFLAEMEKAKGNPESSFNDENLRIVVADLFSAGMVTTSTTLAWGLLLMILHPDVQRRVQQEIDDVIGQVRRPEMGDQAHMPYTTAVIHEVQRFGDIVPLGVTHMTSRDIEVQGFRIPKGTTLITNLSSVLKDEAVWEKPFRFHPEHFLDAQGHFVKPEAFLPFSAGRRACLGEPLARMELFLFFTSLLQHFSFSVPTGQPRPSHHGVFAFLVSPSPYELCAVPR
Chain of CYP2C9 (P11712 whole entry): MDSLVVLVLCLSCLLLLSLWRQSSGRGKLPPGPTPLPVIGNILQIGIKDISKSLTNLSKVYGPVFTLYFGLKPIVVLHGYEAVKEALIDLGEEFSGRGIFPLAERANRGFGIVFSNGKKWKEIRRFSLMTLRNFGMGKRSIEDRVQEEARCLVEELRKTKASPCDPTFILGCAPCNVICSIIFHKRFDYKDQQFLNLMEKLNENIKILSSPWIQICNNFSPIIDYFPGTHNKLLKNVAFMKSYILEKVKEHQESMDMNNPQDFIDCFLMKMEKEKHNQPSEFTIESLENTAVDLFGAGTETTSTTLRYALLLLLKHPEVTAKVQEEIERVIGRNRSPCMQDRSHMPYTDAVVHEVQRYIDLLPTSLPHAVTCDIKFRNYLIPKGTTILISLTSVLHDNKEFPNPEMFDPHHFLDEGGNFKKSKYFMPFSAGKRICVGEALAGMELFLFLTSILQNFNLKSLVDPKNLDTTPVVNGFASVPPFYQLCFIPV

CCNC(=O)Nc1ccc(-c2nc3c(c(N4CCOCC4)n2)CS(=O)(=O)CC3)cc1
Ki [1]: 50 nM
Ki [2]: > 4550 nM
microsomal CLint [3]: < 8 µL/min/mg
hepatocyte CLint [4]: < 2 µL/min/1e6 cells

CCNC(=O)Nc1ccc(-c2nc3c(c(N4C[C@H]5CC[C@@H](C4)O5)n2)CS(=O)(=O)C3)cc1
Ki [1]: 7 nM
inhibition [5]: 18%
IC50 [6]: 84 nM

CCNC(=O)Nc1ccc(-c2nc3c(c(N4C[C@H]5CC[C@@H](C4)O5)n2)CS(=O)(=O)CC3)cc1
Ki [1]: 5 nM
Ki [2]: 3000 nM
IC50 [6]: 55 nM

CCNC(=O)Nc1ccc(-c2nc3c(c(N4CCOC[C@@H]4C)n2)S(=O)(=O)CCC3)cc1
Ki [1]: 50 nM
Ki [2]: > 4550 nM
microsomal CLint [3]: 58 µL/min/mg
hepatocyte CLint [4]: 28 µL/min/1e6 cells

CCNC(=O)Nc1ccc(-c2nc3c(c(N4C[C@@H]5C[C@H]4CO5)n2)CS(=O)(=O)C3)cc1
Ki [1]: 62 nM
inhibition [5]: 3%
IC50 [6]: 1290 nM

CCNC(=O)Nc1ccc(-c2nc3c(c(N4CCOC[C@H]4C)n2)CS(=O)(=O)CC3)cc1
Ki [1]: 52 nM
Ki [2]: > 4550 nM

CCNC(=O)Nc1ccc(-c2nc3c(c(N4CCOCC4)n2)CS(=O)(=O)C3)cc1
Ki [1]: 25 nM
Ki [2]: 514 nM
microsomal CLint [3]: < 8 µL/min/mg
hepatocyte CLint [4]: < 2 µL/min/1e6 cells
Ratio Ki [7]: 20

CCNC(=O)Nc1ccc(-c2nc3c(c(N4CCOC[C@@H]4C)n2)CS(=O)(=O)CC3)cc1
Ki [1]: 8 nM
Ki [2]: > 4550 nM
microsomal CLint [3]: 8.7 µL/min/mg
hepatocyte CLint [4]: < 2 µL/min/1e6 cells
Ratio Ki [7]: > 500
IC50 [6]: 48 nM
IC50 [8]: 6 nM
clearance [9]: 66.2 mL/min/kg
half-life [10]: 1.05 h
bioavailability [11]: 30%
dose excreted [12]: 5.5%
inhibition at 3 µM [13]: ≤ 25%
inhibition at 3 µM [14]: ≤ 25%
inhibition at 3 µM [15]: ≤ 25%
inhibition at 3 µM [16]: ≤ 25%
Activity [17]: Non-toxic

CCNC(=O)Nc1ccc(-c2nc3c(c(N4CCOC[C@H]4C)n2)S(=O)(=O)CC3)cc1
Ki [1]: 120 nM
microsomal CLint [3]: 25 µL/min/mg
hepatocyte CLint [4]: 11 µL/min/1e6 cells
inhibition [5]: 7%
